# Experimental data from ChEMBL document CHEMBL1201862, “PubChem BioAssay data set” (2004).
# The source made the active and inactive calls.
# How the values were obtained:
# [1] = biological target: Protein kinase C theta type (Homo sapiens, UniProt Q04759); experiment: Navigating the Kinome. Panel member name: PRKCQ; assay type: functional
# [2] = biological target: Dual specificity protein kinase CLK2 (Homo sapiens, UniProt P49760); assay type: functional
# [3] = biological target: Dual specificity mitogen-activated protein kinase kinase 1 (Homo sapiens, UniProt Q02750); experiment: Navigating the Kinome. Panel member name: MAP2K1; assay type: functional
# [4] = biological target: Tyrosine-protein kinase JAK2 (Homo sapiens, UniProt O60674); assay type: functional;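 further: JAK2 tested as one member of a kinase panel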
# [5] = biological target: Serine/threonine-protein kinase TBK1 (Homo sapiens, UniProt Q9UHD2); experiment: Navigating the Kinome. Panel member name: TBK1; assay type: functional
# [6] = biological target: 5'-AMP-activated protein kinase catalytic subunit alpha-1 (Homo sapiens, UniProt Q13131); assay type: functional
# [7] = biological target: ALK tyrosine kinase receptor (Homo sapiens, UniProt Q9UM73); assay type: functional;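 further: ALK tested as one member of a kinase panel screen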
# [8] = biological target: Proto-oncogene tyrosine-protein kinase receptor Ret (Homo sapiens, UniProt P07949); assay type: functional;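 further: measured within a kinome-wide profiling panel, RET as the panel member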
# [9] = biological target: Tyrosine-protein kinase receptor TYRO3 (Homo sapiens, UniProt Q06418); assay type: functional;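 further: TYRO3 value obtained as one member of a kinome-wide profiling panel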
# [10] = biological target: Serine/threonine-protein kinase D3 (Homo sapiens, UniProt O94806); assay type: functional;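 further: determined within a kinase panel screen, with PRKCN as the panel member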
# [11] = biological target: Tyrosine-protein kinase Lck (Homo sapiens, UniProt P06239); assay type: functional;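 further: lck was assayed as one member of a kinase panel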
# [12] = biological target: Death-associated protein kinase 3 (Homo sapiens, UniProt O43293); assay type: functional;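 further: measured as one member of a kinome-wide profiling panel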
# Activin receptor type-1 = Activin receptor type-1 (Homo sapiens, UniProt Q04771); experiment: Navigating the Kinome. Panel member name: ACVR1; assay type: functional
# [13] = biological target: Mitogen-activated protein kinase 8 (Homo sapiens, UniProt P45983); assay type: functional;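 further: value comes from one member of a kinome-wide kinase profiling panel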
# [14] = biological target: Serine/threonine-protein kinase pim-1 (Homo sapiens, UniProt P11309); assay type: functional
# Aurora kinase A = Aurora kinase A (Homo sapiens, UniProt O14965); assay type: functional;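 further: value from the Navigating the Kinome kinase panel profiling, panel entry STK6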
# [15] = biological target: Tyrosine-protein kinase BTK (Homo sapiens, UniProt Q06187); assay type: functional
# [16] = biological target: Mast/stem cell growth factor receptor Kit (Homo sapiens, UniProt P10721); assay type: functional;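 further: KIT entry within a kinase panel assay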
# [17] = biological target: Fibroblast growth factor receptor 1 (Homo sapiens, UniProt P11362); assay type: functional
# [18] = biological target: Tyrosine-protein kinase JAK3 (Homo sapiens, UniProt P52333); assay type: functional
# [19] = biological target: Mitogen-activated protein kinase 9 (Homo sapiens, UniProt P45984); assay type: functional;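 further: value from a kinome panel profiling assay, MAPK9 panel entry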
# [20] = biological target: Serine/threonine-protein kinase N2 (Homo sapiens, UniProt Q16513); assay type: functional
# [21] = biological target: Serine/threonine-protein kinase TAO1 (Homo sapiens, UniProt Q7L7X3); assay type: functional
# [22] = biological target: High affinity nerve growth factor receptor (Homo sapiens, UniProt P04629); assay type: functional;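 further: NTRK1 tested as one member of a kinome-wide profiling panel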
# [23] = biological target: Glycogen synthase kinase-3 alpha (Homo sapiens, UniProt P49840); assay type: functional;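 further: GSK3A result taken from a broad kinome-wide kinase panel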
# [24] = biological target: Mitogen-activated protein kinase kinase kinase kinase 2 (Homo sapiens, UniProt Q12851); assay type: functional;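 further: measured as one member of a kinome-wide kinase panel, with MAP4K2 as the panel entry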
# Activated CDC42 kinase 1 = Activated CDC42 kinase 1 (Homo sapiens, UniProt Q07912); experiment: Navigating the Kinome. Panel member name: ACK1; assay type: functional
# [25] = biological target: Receptor-type tyrosine-protein kinase FLT3 (Homo sapiens, UniProt P36888); assay type: functional;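 further: FLT3 was tested as one member of a kinome-wide kinase panel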
# [26] = biological target: Tyrosine-protein kinase ABL1 (Homo sapiens, UniProt P00519); assay type: functional
# [27] = biological target: Vascular endothelial growth factor receptor 2 (Homo sapiens, UniProt P35968); assay type: functional
# [28] = biological target: G protein-coupled receptor kinase 5 (Homo sapiens, UniProt P34947); experiment: Navigating the Kinome. Panel member name: GPRK5; assay type: functional
# [29] = biological target: Cyclin-dependent kinase 5 (Homo sapiens, UniProt Q00535); assay type: functional;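 further: CDK5 measured as one member of a kinase profiling panel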
# [30] = biological target: Insulin-like growth factor 1 receptor (Homo sapiens, UniProt P08069); experiment: Navigating the Kinome. Panel member name: IGF1R; assay type: functional
# [31] = biological target: Dual specificity tyrosine-phosphorylation-regulated kinase 1B (Homo sapiens, UniProt Q9Y463); experiment: Navigating the Kinome. Panel member name: DYRK1B; assay type: functional
# [32] = biological target: cAMP-dependent protein kinase catalytic subunit PRKX (Homo sapiens, UniProt P51817); assay type: functional
# [33] = biological target: Platelet-derived growth factor receptor alpha (Homo sapiens, UniProt P16234); experiment: Navigating the Kinome. Panel member name: PDGFRA; assay type: functional
# [34] = biological target: Leucine-rich repeat serine/threonine-protein kinase 2 (Homo sapiens, UniProt Q5S007); assay type: functional;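 further: value from a broad kinome-wide panel profiling study in which LRRK2 was one of the kinases tested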
# [35] = biological target: Mitogen-activated protein kinase kinase kinase kinase 5 (Homo sapiens, UniProt Q9Y4K4); assay type: functional;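 further: measured as one member of a kinome-spanning kinase panel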
# [36] = biological target: Cyclin-dependent kinase 19 (Homo sapiens, UniProt Q9BWU1); experiment: Navigating the Kinome. Panel member name: CDC2L6; assay type: functional
# [37] = biological target: Tyrosine-protein kinase Fyn (Homo sapiens, UniProt P06241); assay type: functional
# [38] = biological target: Cyclin-dependent kinase 8 (Homo sapiens, UniProt P49336); experiment: Navigating the Kinome. Panel member name: CDK8; assay type: functional
# [39] = biological target: Vascular endothelial growth factor receptor 1 (Homo sapiens, UniProt P17948); assay type: functional;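 further: measured within a kinome-wide profiling panel, FLT1 as the panel member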
# [40] = biological target: Glycogen synthase kinase-3 beta (Homo sapiens, UniProt P49841); assay type: functional;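 further: value comes from a broad kinome profiling panel, with GSK3B as the panel member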
# [41] = biological target: Cyclin-dependent kinase 9 (Homo sapiens, UniProt P50750); assay type: functional;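 further: value from the CDK9 entry of a kinome-spanning kinase panel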
# [42] = biological target: BDNF/NT-3 growth factors receptor (Homo sapiens, UniProt Q16620); assay type: functional;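 further: NTRK2 measured as one member of a broad kinome-wide kinase profiling panel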
# [43] = biological target: cAMP-dependent protein kinase catalytic subunit alpha (Homo sapiens, UniProt P17612); assay type: functional
# [44] = biological target: Dual specificity protein kinase CLK4 (Homo sapiens, UniProt Q9HAZ1); assay type: functional
# [45] = biological target: Mitogen-activated protein kinase kinase kinase kinase 4 (Homo sapiens, UniProt O95819); assay type: functional
# [46] = biological target: Macrophage-stimulating protein receptor (Homo sapiens, UniProt Q04912); experiment: Navigating the Kinome. Panel member name: MST1R; assay type: functional
# [47] = biological target: Macrophage colony-stimulating factor 1 receptor (Homo sapiens, UniProt P07333); assay type: functional;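 further: value comes from the Navigating the Kinome screening panel, CSF1R member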
# [48] = biological target: Dual specificity mitogen-activated protein kinase kinase 2 (Homo sapiens, UniProt P36507); experiment: Navigating the Kinome. Panel member name: MAP2K2; assay type: functional
# [49] = biological target: Dual specificity tyrosine-phosphorylation-regulated kinase 1A (Homo sapiens, UniProt Q13627); assay type: functional;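 further: measured against DYRK1A as one member of a broad kinome profiling panel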
# [50] = biological target: Inhibitor of nuclear factor kappa-B kinase subunit epsilon (Homo sapiens, UniProt Q14164); experiment: Navigating the Kinome. Panel member name: IKBKE; assay type: functional
# [51] = biological target: Calcium/calmodulin-dependent protein kinase type II subunit alpha (Homo sapiens, UniProt Q9UQM7); experiment: Navigating the Kinome. Panel member name: CAMK2A; assay type: functional
# [52] = biological target: Leukocyte tyrosine kinase receptor (Homo sapiens, UniProt P29376); experiment: Navigating the Kinome. Panel member name: LTK; assay type: functional
# [53] = biological target: Mitogen-activated protein kinase 14 (Homo sapiens, UniProt Q16539); assay type: functional;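 further: part of a kinome-wide panel, MAPK14 entry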
# [54] = microbe, parasite or virus in culture; assay type: functional; details: Mycobacterium tuberculosis
# [55] = Vero cell cytotoxicity, dose response, cytotoxicity control for M. tuberculosis growth inhibitor project, Vero cells, purified and synthesized compounds, set 5 (AID 504909); assay type: functional; details: Mycobacterium tuberculosis
# [56] = biological target: T1, Corticotropin-releasing factor receptor 2/Corticotropin-releasing factor-binding protein (Homo sapiens, UniProt P24387+Q13324); experiment: Dose Response confirmation of uHTS hits for small molecule antagonists of the CRF-binding protein and CRF-R2 receptor complex.; assay type: functional; details: read-out: IC50_Mean
# T1 sequence (Q13324 whole entry): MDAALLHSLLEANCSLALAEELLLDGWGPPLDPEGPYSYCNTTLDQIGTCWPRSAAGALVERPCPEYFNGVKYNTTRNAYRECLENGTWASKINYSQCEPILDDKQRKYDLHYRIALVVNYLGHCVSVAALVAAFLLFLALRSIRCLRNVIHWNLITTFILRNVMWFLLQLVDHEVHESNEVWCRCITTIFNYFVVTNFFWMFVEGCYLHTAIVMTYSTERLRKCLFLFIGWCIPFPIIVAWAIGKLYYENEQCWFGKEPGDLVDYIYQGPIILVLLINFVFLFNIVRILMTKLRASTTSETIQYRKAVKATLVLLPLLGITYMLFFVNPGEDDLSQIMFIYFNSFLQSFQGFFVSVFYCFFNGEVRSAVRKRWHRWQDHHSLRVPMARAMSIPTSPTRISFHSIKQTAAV
# T1 sequence (P24387 whole entry): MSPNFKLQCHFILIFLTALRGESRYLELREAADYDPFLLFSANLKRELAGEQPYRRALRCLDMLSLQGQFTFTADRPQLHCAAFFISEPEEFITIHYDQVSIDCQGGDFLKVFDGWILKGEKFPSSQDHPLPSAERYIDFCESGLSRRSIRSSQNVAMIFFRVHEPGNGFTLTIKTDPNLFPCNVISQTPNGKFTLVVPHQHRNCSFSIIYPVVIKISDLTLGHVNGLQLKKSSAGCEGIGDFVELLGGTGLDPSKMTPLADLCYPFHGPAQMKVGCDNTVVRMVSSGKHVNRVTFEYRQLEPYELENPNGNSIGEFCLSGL
# [57] = A Cell Based Secondary Assay to Explore Cytotoxicity in THP-1 Cells of Compounds that Modulate Mycobacterium tuberculosis in Media Containing Glycerol versus Media without Glycerol (2).; assay type: functional
# [58] = Vero cell cytotoxicity, cytotoxicity control for M. tuberculosis inhibitor project, purified and synthesized samples, set 3 (AID 504684); assay type: functional
# [59] = HepG2 cell cytotoxicity, cytotoxicity control, set 4 (AID 504910); assay type: functional; details: Mycobacterium tuberculosis
# [60] = THP-1 cell cytotoxicity, cytotoxicity control, set 4 (AID 504911); assay type: functional; details: Mycobacterium tuberculosis
# [61] = A Cell Based Secondary Assay to Explore Cytotoxicity in HepG2 Cells of Compounds that Modulate Mycobacterium tuberculosis in Media Containing Glycerol versus Media without Glycerol (2).; assay type: functional
# [62] = biological target: T1, Corticotropin-releasing factor receptor 2/Corticotropin-releasing factor-binding protein; experiment: activators of CRF receptor 2 with binding protein – uHTS hits, confirmation (AID 602473); assay type: functional; details: read-out: EC50_Mean
# [63] = HepG2 cell cytotoxicity, dose response, cytotoxicity control, set 3 (AID 504853); assay type: functional; details: Mycobacterium tuberculosis
# [64] = THP-1 cell cytotoxicity, dose response, cytotoxicity control, set 3 (AID 504852); assay type: functional; details: Mycobacterium tuberculosis
# [65] = Vero cell cytotoxicity, dose response, cytotoxicity control for M. tuberculosis growth inhibitor project, Vero cells, purified and synthesized compounds, set 4 (AID 504854); assay type: functional; details: Mycobacterium tuberculosis
# [66] = blockers of CRF-binding protein–CRF-R2 complex – cell-based, uHTS hits, 384-well, dose response (AID 651639); assay type: functional, Homo sapiens; details: read-out: IC50_Mean
# Dual specificity tyrosine-phosphorylation-regulated kinase 1B, sequence (Q9Y463 whole entry): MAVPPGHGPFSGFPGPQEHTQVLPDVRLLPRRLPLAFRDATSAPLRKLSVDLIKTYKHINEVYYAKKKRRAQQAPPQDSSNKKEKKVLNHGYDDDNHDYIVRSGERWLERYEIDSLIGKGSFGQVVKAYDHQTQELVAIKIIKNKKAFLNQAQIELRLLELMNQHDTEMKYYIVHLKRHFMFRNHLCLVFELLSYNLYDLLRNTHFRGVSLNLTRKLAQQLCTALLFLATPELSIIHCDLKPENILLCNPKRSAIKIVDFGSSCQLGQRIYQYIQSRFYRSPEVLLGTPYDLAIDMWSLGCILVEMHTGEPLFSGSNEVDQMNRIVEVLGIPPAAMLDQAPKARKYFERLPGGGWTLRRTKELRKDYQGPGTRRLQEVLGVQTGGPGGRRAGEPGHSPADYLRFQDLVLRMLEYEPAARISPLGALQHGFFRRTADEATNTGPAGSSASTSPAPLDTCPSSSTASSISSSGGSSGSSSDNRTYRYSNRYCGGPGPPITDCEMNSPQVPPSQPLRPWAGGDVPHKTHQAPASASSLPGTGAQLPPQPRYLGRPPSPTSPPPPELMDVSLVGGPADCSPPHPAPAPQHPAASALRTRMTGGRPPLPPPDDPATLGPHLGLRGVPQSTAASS
# Mitogen-activated protein kinase 9, sequence (P45984 whole entry): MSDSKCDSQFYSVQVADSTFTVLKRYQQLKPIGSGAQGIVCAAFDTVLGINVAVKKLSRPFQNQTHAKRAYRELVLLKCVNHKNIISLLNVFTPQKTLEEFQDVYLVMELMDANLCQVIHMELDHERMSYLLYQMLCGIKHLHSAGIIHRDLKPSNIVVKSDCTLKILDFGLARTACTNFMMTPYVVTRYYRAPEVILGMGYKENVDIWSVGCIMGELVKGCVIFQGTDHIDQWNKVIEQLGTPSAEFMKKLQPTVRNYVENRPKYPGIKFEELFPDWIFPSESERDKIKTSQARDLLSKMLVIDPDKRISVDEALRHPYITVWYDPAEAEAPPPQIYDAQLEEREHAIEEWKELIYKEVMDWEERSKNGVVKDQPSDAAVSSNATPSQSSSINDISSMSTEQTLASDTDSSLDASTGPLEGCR
# Tyrosine-protein kinase JAK3, sequence (P52333 whole entry): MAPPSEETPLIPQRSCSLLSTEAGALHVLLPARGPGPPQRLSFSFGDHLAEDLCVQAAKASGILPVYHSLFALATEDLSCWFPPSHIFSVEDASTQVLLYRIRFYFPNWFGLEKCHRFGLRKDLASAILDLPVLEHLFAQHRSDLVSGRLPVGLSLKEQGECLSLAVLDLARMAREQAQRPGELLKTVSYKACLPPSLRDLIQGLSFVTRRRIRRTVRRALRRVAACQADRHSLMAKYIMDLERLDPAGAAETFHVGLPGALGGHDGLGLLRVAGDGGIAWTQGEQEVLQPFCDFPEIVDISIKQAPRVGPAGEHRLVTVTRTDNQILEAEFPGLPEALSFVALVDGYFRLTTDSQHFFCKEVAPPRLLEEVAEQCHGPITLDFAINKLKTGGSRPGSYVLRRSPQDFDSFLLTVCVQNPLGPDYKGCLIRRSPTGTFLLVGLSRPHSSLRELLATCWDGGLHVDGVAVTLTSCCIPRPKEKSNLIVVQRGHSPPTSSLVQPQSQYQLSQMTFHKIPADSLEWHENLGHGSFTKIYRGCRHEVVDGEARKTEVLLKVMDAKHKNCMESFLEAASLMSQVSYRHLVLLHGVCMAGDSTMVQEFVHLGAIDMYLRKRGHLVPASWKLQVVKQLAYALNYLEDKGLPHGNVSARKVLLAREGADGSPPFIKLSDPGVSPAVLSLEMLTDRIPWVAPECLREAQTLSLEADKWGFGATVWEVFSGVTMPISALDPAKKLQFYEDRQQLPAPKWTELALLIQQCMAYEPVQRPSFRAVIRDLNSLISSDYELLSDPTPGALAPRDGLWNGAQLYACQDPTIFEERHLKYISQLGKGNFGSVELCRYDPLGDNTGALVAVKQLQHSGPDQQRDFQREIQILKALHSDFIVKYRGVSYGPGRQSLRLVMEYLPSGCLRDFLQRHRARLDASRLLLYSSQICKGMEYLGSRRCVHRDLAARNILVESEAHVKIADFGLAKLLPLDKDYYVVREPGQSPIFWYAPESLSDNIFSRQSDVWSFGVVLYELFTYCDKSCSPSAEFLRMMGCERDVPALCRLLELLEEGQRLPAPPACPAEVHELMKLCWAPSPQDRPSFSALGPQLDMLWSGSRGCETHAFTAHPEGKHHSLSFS
# Cyclin-dependent kinase 19, sequence (Q9BWU1 whole entry): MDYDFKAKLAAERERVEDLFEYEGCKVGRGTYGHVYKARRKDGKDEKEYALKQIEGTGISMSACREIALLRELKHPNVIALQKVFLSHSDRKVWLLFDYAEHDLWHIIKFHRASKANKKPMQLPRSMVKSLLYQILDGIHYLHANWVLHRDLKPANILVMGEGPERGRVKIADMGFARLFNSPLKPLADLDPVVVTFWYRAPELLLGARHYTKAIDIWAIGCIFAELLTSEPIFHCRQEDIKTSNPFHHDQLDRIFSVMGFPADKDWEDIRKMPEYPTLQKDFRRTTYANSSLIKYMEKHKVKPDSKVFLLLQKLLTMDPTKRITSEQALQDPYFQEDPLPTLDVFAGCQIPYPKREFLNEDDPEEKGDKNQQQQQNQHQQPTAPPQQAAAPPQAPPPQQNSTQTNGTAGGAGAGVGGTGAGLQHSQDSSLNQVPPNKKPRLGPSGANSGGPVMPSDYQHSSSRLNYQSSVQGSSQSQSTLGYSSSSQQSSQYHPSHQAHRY
# 5'-AMP-activated protein kinase catalytic subunit alpha-1, sequence (Q13131 whole entry): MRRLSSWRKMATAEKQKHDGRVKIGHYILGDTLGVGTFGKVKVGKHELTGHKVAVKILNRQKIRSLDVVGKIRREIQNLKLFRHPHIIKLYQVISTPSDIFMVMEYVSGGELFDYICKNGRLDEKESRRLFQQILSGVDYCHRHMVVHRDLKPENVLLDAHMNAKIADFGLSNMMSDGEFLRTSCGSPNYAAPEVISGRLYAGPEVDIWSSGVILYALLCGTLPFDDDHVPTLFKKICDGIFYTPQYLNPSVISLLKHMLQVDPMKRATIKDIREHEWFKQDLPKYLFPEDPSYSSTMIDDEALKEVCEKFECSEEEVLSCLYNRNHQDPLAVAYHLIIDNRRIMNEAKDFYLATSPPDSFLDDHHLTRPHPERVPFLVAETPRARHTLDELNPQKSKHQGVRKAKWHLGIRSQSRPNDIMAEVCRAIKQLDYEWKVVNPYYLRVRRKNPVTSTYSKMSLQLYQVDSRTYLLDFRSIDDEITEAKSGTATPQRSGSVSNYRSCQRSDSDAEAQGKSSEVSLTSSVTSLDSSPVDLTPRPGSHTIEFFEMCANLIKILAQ
# Activated CDC42 kinase 1, sequence (Q07912 whole entry): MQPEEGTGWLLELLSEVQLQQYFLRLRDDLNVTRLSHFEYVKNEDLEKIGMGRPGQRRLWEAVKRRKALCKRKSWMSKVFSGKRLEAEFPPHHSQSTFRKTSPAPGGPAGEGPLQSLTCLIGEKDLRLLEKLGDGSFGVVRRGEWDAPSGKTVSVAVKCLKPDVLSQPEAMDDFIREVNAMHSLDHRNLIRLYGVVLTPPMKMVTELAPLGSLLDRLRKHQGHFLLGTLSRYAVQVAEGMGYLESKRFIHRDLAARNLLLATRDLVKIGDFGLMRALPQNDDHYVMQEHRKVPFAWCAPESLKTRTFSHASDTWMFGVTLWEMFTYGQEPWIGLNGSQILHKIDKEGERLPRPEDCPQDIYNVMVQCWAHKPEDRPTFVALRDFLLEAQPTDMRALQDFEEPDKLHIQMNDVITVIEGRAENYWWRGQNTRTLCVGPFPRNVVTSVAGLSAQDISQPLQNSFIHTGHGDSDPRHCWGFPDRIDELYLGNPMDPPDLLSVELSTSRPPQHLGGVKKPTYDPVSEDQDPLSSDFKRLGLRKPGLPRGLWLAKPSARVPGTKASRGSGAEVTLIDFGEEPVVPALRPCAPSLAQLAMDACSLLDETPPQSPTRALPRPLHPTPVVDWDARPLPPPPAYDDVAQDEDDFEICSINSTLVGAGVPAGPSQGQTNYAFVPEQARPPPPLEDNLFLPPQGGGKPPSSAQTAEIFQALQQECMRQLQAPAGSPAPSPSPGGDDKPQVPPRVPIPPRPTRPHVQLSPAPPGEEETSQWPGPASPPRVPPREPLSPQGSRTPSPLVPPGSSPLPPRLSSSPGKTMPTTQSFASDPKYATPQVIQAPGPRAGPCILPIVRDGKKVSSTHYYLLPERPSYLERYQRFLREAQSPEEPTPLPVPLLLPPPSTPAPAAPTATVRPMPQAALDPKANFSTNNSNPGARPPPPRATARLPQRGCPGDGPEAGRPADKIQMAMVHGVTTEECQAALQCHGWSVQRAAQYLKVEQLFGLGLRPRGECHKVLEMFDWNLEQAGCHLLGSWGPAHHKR
# Serine/threonine-protein kinase TBK1, sequence (Q9UHD2 whole entry): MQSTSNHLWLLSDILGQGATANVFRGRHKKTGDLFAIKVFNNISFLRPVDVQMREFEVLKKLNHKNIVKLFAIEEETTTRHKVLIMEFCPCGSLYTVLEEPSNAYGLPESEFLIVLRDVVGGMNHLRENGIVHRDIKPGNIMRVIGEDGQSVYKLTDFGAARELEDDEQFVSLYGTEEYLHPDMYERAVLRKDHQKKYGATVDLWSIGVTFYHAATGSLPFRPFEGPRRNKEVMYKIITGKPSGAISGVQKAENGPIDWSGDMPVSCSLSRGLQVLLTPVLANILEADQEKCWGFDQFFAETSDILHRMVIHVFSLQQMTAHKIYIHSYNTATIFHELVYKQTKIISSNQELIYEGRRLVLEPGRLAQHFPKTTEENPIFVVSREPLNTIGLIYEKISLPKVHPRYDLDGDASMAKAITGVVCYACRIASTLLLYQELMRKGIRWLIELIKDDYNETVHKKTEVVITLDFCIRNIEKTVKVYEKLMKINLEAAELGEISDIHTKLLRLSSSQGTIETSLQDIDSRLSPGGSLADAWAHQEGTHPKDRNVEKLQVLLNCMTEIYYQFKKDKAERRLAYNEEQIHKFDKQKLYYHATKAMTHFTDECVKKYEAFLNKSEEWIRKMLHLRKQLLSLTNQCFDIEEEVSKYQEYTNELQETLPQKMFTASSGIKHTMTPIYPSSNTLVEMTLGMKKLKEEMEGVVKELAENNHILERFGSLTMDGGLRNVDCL
compound,measurement,setting,value
COc1cc2ncc3c(N)nc4c(C)c(N)ccc4c3c2cc1OC,Ki,[1],> 2.51 µM (inactive)
same,Ki,[2],> 3.98 µM (inactive)
same,Ki,[3],> 3.16 µM (inactive)
same,Ki,[4],> 2.51 µM (inactive)
same,Ki,[5],> 3.16 µM (inactive)
same,Ki,[6],> 3.16 µM (inactive)
same,Ki,[7],> 6.31 µM (inactive)
same,Ki,[8],> 3.16 µM (inactive)
same,Ki,[9],> 3.16 µM (inactive)
same,Ki,[10],0.158 µM (active)
same,Ki,[11],> 6.31 µM (inactive)
same,Ki,[12],3.98 µM (active)
same,Ki,Activin receptor type-1,> 3.98 µM (inactive)
same,Ki,[13],> 5.01 µM (inactive)
same,Ki,[14],> 6.31 µM (inactive)
same,Ki,Aurora kinase A,> 1.58 µM (inactive)
same,Ki,[15],> 6.31 µM (inactive)
same,Ki,[16],> 3.98 µM (inactive)
same,Ki,[17],> 3.98 µM (inactive)
same,Ki,[18],> 5.01 µM (inactive)
same,Ki,[19],> 3.98 µM (inactive)
same,Ki,[20],> 5.01 µM (inactive)
same,Ki,[21],> 6.31 µM (inactive)
same,Ki,[22],> 3.16 µM (inactive)
same,Ki,[23],> 3.98 µM (inactive)
same,Ki,[24],> 2.51 µM (inactive)
same,Ki,Activated CDC42 kinase 1,> 3.98 µM (inactive)
same,Ki,[25],> 3.16 µM (inactive)
same,Ki,[26],> 3.98 µM (inactive)
same,Ki,[27],> 2.51 µM (inactive)
same,Ki,[28],> 3.98 µM (inactive)
same,Ki,[29],> 3.16 µM (inactive)
same,Ki,[30],> 2.51 µM (inactive)
same,Ki,[31],> 2.51 µM (inactive)
same,Ki,[32],> 3.16 µM (inactive)
same,Ki,[33],> 2.51 µM (inactive)
same,Ki,[34],0.0631 µM (active)
same,Ki,[35],> 3.98 µM (inactive)
same,Ki,[36],> 100 µM (inactive)
same,Ki,[37],> 6.31 µM (inactive)
same,Ki,[38],> 3.98 µM (inactive)
same,Ki,[39],3.16 µM (active)
same,Ki,[40],> 3.98 µM (inactive)
same,Ki,[41],> 1.58 µM (inactive)
same,Ki,[42],> 3.98 µM (inactive)
same,Ki,[43],> 1.26 µM (inactive)
same,Ki,[44],> 2.51 µM (inactive)
same,Ki,[45],> 5.01 µM (inactive)
same,Ki,[46],> 3.98 µM (inactive)
same,Ki,[47],> 2.51 µM (inactive)
same,Ki,[48],> 3.98 µM (inactive)
same,Ki,[49],> 2 µM (inactive)
same,Ki,[50],> 3.16 µM (inactive)
same,Ki,[51],> 7.94 µM (inactive)
same,Ki,[52],> 2.51 µM (inactive)
same,Ki,[53],> 3.98 µM (inactive)
Cc1ccc(C(=O)N/N=C(/CC(=O)c2cccs2)C(F)(F)F)cc1,CC50,[54],28.2 µM (active)
same,CC50,[55],34.4 µM (active)
same,IC50,[56],4.48 µM (active)
same,CC50,[57],89.8 µM (active)
same,CC50,[58],61.7 µM (active)
same,CC50,[59],38.8 µM (active)
same,CC50,[60],46.3 µM (active)
same,CC50,[61],35 µM (active)
same,EC50,[62],> 53 µM (inactive)
same,CC50,[63],> 50 µM (active)
same,CC50,[64],51.4 µM (active)
same,CC50,[65],55 µM (active)
same,IC50,[66],16 µM (active)
